Literature values in patent publication US11173114B1, “Method and system for manufacturing and oral soluble films and oral soluble films made by thereby” (NOVA Thin Film Pharmaceuticals LLC, priority 2020, dated 2021).
Where two headings read alike, the source gives them in different places.

## O [Water]
25 ° C.
  Surface tension (head printed □): 71.97 mN/m
40 ° C.
  Surface tension (head printed □): 69.56 mN/m
80 ° C.
  Surface tension (head printed □): 62.6 mN/m
